Literature values in patent US9549940B2, “Sustained-release formulations of topiramate” (Supernus Pharmaceuticals, Inc., priority 2006, dated 2017).

Assays:
[1] = room temperature
[2] = oral administration of an immediate release dosage form

In the case of `CC1(C)OC2[C@@H](CO[C@@]3(COS(N)(=O)=O)OC(C)(C)O[C@@H]23)O1` (stereo partly drawn) [topiramate, 2,3:4,5-Di-O-isopropylidene-beta-D-fructopyranose sulfamate], the “solubility of topiramate in water” value [1] is listed as “about 9.8 mg/ml” and the “time of plasma drug concentration peak” value [2] is listed as “approximately 2 hours”.
